Experimental data from US4220755A, “Fortimicin B derivatives and process for production thereof” (Abbott Laboratories, priority 1976, dated 1980).
Converted amounts (≈) assume the structure as drawn. Read-outs that look alike come from different tables or passages of the source.

What was measured:
Test in all cases: MIC, agar dilution method, pH 8.0
Type in all cases: cell-based
[1] = tested on: Staphylococcus aureus KY4279 ATCC6538P
Method: (§1) Measurement was carried out according to the agar dilution method, using a medium of pH 8.0, or the Japanese Antibiotic Medicament Standard, using a medium of pH 7.2 Units are in mcg/ml.
S.A.: Staphylococcus aureus KY4279 ATCC6538P

Bacillus subtilis KY4273 = tested on: Bacillus subtilis KY4273
Method: as §1
B.S.: Bacillus subtilis KY4273

[2] = tested on: Eschericia coli KY4271 ATCC26; settings: Escherichia coli
Method: as §1
E.C.: Eschericia coli KY4271 ATCC26

[3] = tested on: Proteus vulgaris KY4277 ATCC6897
Method: as §1

[4] = tested on: Shigella sonnei KY4281 ATCC9290
Method: as §1

[5] = tested on: Salmonella typhosa KY4278 ATCC9992; settings: Salmonella enterica, pH 8, read-out: Minimum inhibition concentration (MIC), ST
Method: as §1
S.T.: Salmonella typhosa KY4278 ATCC9992

[6] = tested on: Klebsiella pneumoniae KY4275 ATCC10031; settings: ATCC10031; pH 8.0; Klebsiella pneumoniae KY4275; read-out: Minimum inhibition concentration (MIC), KP
Method: as §1
K.P.: Klebsiella pneumoniae KY4275 ATCC10031.

[7] = pH 8.0, Staphylococcus aureus KY4279, read-out: Minimum inhibition concentration (MIC), SA
[8] = pH 8.0, Bacillus subtilis KY4273, read-out: Minimum inhibition concentration (MIC), BS
[9] = ATCC26, pH 8.0, E. coli KY4271, read-out: Minimum inhibition concentration (MIC), EC
[10] = ATCC6897, pH 8.0, Proteus vulgaris KY4277, read-out: Minimum inhibition concentration (MIC), PV
[11] = ATCC9290, pH 8.0, Shigella sonnei KY4281, read-out: Minimum inhibition concentration (MIC), SS
[12] = Staphylococcus aureus, pH 8, read-out: Minimum inhibition concentration (MIC), SA
[13] = ATCC26, pH 8, read-out: Minimum inhibition concentration (MIC), EC
[14] = Bacillus subtilis, KY4273, pH 8, read-out: Minimum inhibition concentration (MIC), BS

Structure (SMILES) | MIC [1, 7] [µg/mL] | MIC (Bacillus subtilis KY4273; [8]) [µg/mL] | MIC [2, 9] [µg/mL] | MIC [3, 10] [µg/mL] | MIC [4, 11] [µg/mL] | MIC [5] [µg/mL] | MIC [6] [µg/mL] | MIC [1, 12] [µg/mL] | MIC [2, 13] [µg/mL] | MIC (Bacillus subtilis KY4273; [14]) [µg/mL] | MIC ([4]; Shigella sonnei, ATCC9290, pH 8, read-out: Minimum inhibition concentration (MIC), SS) [µg/mL] | MIC ([3]; Proteus vulgaris, ATCC6897, pH 8, read-out: Minimum inhibition concentration (MIC), PV) [µg/mL]
CO[C@H]1[C@@H](O)[C@H](N)[C@@H](O[C@H]2O[C@H]([C@H](C)N)CC[C@H]2N)[C@H](O)[C@@H]1N(C)C(=O)CCCCCN [Compound 12, 4-N-(ε-amino-n-caproyl)fortimicin B] | > 20 | > 20 | > 20 | > 20 | > 20 | > 20 | > 20 |  |  |  |  | 
CO[C@H]1[C@@H](O)[C@H](N)[C@@H](O[C@H]2O[C@H]([C@H](C)N)CC[C@H]2N)[C@H](O)[C@@H]1N(C)C(=O)CCN [Compound 9, 4-N-(β-alanyl)fortimicin B] | 0.08 (≈ 0.191 µM) | 0.08 (≈ 0.191 µM) | 0.63 (≈ 1.5 µM) | 0.63 (≈ 1.5 µM) | 1.25 (≈ 2.98 µM) | 0.32 (≈ 0.763 µM) | 0.32 (≈ 0.763 µM) |  |  |  |  | 
CCCCN(C)[C@H]1[C@@H](O)[C@H](O[C@H]2O[C@H]([C@H](C)N)CC[C@H]2N)[C@@H](N)[C@H](O)[C@@H]1OC [Compound 18, 4-N-(n-butyl)fortimicin B] |  | 25 (≈ 61.8 µM) | 25 (≈ 61.8 µM) | 100 (≈ 247 µM) | 25 (≈ 61.8 µM) | 12.5 (≈ 30.9 µM) | > 200 | 12.5 (≈ 30.9 µM) |  |  |  | 
CO[C@H]1[C@@H](O)[C@H](N)[C@@H](O[C@H]2O[C@H]([C@H](C)N)CC[C@H]2N)[C@H](O)[C@@H]1N(C)CCCCN [Compound 21, 4-N-(4-aminobutyl)fortimicin B] | 0.32 (≈ 0.763 µM) | 0.32 (≈ 0.763 µM) |  | 2.5 (≈ 5.96 µM) | 2.5 (≈ 5.96 µM) | 1.25 (≈ 2.98 µM) | 5 (≈ 11.9 µM) |  | 1.25 (≈ 2.98 µM) |  |  | 
CCCCC(=O)N(C)[C@H]1[C@@H](O)[C@H](O[C@H]2O[C@H]([C@H](C)N)CC[C@H]2N)[C@@H](N)[C@H](O)[C@@H]1OC [Compound 8, 4-N-(n-valeryl)fortimicin B] | 100 (≈ 231 µM) | 25 (≈ 57.8 µM) | > 100 | > 200 | > 200 | > 200 | > 200 |  |  |  |  | 
CCCCCN(C)[C@H]1[C@@H](O)[C@H](O[C@H]2O[C@H]([C@H](C)N)CC[C@H]2N)[C@@H](N)[C@H](O)[C@@H]1OC [Compound 19, 4-N-(n-pentyl)fortimicin B] | 25 (≈ 59.7 µM) | 200 (≈ 478 µM) | 100 (≈ 239 µM) | > 200 | 100 (≈ 239 µM) | 100 (≈ 239 µM) | > 200 |  |  |  |  | 
CNCCC(O)CN(C)[C@H]1[C@@H](O)[C@H](O[C@H]2O[C@H]([C@H](C)N)CC[C@H]2N)[C@@H](N)[C@H](O)[C@@H]1OC (stereo partly drawn) [Compound 30, 4-N-[(R,S)-4-methylamino-2-hydroxybutyl]fortimicin B] | 0.08 (≈ 0.178 µM) | 0.02 (≈ 0.0445 µM) | 0.32 (≈ 0.712 µM) | 0.16 (≈ 0.356 µM) | 0.63 (≈ 1.4 µM) | 0.08 (≈ 0.178 µM) | 0.32 (≈ 0.712 µM) |  |  |  |  | 
CO[C@H]1[C@@H](O)[C@H](N)[C@@H](O[C@H]2O[C@H]([C@H](C)N)CC[C@H]2N)[C@H](O)[C@@H]1N(C)C[C@@H](O)CCCN [Compound 33, 4-N-[(S)-5-amino-2-hydroxypentyl]fortimicin B] | 0.32 (≈ 0.712 µM) |  | 2.5 (≈ 5.56 µM) | 5 (≈ 11.1 µM) |  | 10 (≈ 22.2 µM) |  |  |  | 1.25 (≈ 2.78 µM) | 1.25 (≈ 2.78 µM) | 
CCCN(C)[C@H]1[C@@H](O)[C@H](O[C@H]2O[C@H]([C@H](C)N)CC[C@H]2N)[C@@H](N)[C@H](O)[C@@H]1OC [Compound 17, 4-N-(n-propyl)fortimicin B] | 3.13 (≈ 8.01 µM) |  |  |  | 12.5 (≈ 32 µM) | 6.25 (≈ 16 µM) | 100 (≈ 256 µM) |  | 6.25 (≈ 16 µM) | 12.5 (≈ 32 µM) |  | 12.5 (≈ 32 µM)
CO[C@H]1[C@@H](O)[C@H](N)[C@@H](O[C@H]2O[C@H]([C@H](C)N)CC[C@H]2N)[C@H](O)[C@@H]1N(C)C(C)=O [Compound 5, 4-N-acetylfortimicin B] | 12.5 (≈ 32 µM) | 50 (≈ 128 µM) | 50 (≈ 128 µM) | 100 (≈ 256 µM) | 50 (≈ 128 µM) | 50 (≈ 128 µM) | > 200 |  |  |  |  | 
CO[C@H]1[C@@H](O)[C@H](N)[C@@H](O[C@H]2O[C@H]([C@H](C)N)CC[C@H]2N)[C@H](O)[C@@H]1N(C)CCO [Compound 24, 4-N-(2-hydroxyethyl)fortimicin B] |  | > 80 | 5 (≈ 12.7 µM) | 10 (≈ 25.5 µM) | 10 (≈ 25.5 µM) | 1.25 (≈ 3.18 µM) | 40 (≈ 102 µM) | 1.25 (≈ 3.18 µM) |  |  |  | 
